The test has as its target T1, Amine oxidase [flavin-containing] B (Bos taurus, UniProt P56560).
T1 sequence (P56560 whole entry): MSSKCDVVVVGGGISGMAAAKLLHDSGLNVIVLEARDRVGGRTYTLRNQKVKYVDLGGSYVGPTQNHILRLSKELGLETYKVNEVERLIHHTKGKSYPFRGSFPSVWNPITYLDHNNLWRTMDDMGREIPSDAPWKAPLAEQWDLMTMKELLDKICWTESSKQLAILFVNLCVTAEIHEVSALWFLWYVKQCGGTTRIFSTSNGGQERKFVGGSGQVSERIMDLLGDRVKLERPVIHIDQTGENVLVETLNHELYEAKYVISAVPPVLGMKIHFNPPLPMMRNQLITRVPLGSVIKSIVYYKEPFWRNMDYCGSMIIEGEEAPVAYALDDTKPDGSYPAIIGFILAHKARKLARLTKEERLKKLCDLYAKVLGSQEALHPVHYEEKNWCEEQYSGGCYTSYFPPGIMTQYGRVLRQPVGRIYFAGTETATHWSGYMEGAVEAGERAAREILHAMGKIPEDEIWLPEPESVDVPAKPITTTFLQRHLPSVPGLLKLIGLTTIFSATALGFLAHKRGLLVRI
The test can be described thus: Inhibitory activity against Monoamine oxidase B isolated from beef liver mitochondria was determined.

By Ki is commonly meant a measure of affinity in units of concentration, obtained from inhibition or displacement. A low value points to higher affinity.

As to `CC[C@]1(O)C[C@@H]2CN(CCc3c([nH]c4ccccc34)[C@@](C(=O)OC)(c3cc4c(cc3OC)N(C)[C@H]3[C@@](O)(C(=O)OC)[C@H](OC(C)=O)[C@]5(CC)C=CCN6CC[C@]43[C@@H]65)C2)C1` [VINBLASTINE], affinity was put at a Ki of 77 µM.
